Publication PMC10458312, “Xanthones with Potential Anti-Inflammatory and Anti-HIV Effects from the Stems and Leaves of Cratoxylum cochinchinense” (Molecules, 2023)
Read-outs that look alike come from different tables or passages of the source.

Experiments:
[1] = MTT cytotoxicity assay against C8166 cells; format: cell-based; conditions: human
Procedure: (§1) Anti-HIV-1 activity bioassays
50% DMF-20% SDS (100.0 μL) was added. After the formazan was dissolved completely, the
volume per well was 200.0 μL. Control assays were performed without the testing compounds in
HIV-1IIIB infected and uninfected cultures. […]

HIV-1IIIB = test: Inhibition assay for the cytopathic effects of HIV-1 (syncytia formation) in C8166 cells; conditions: for TI (therapeutic index) = CC50/EC50: CC50 in C8166 / EC50 against HIV-1; for EC50: Human immunodeficiency virus 1, C8166, 72 h, read-out: EC50 (50% effective concentration), anti-HIV-1
Procedure: All isolated xanthones 1–12 were assessed for their anti-HIV reverse transcriptase (RT) effects according to the inhibition assay for the cytopathic activities of HIV-1 (EC50) as well as the cytotoxic activities assay against C8166 cell line (CC50) according to MTT methods.
All isolated xanthones 1–12 were assessed for their anti-HIV-1 reverse transcriptase (RT) effects in vitro on the basis of the inhibition assay for the cytopathic effects of HIV-1 (EC50), in light of the protocol which is described in detail in the Supplementary Material of our current article, in which AZT (3′-azido-3′-deoxythymidine) was adopted as the positive control. All isolated xanthones 1–12 and the positive control (AZT) were also evaluated for their cytotoxic activities against C8166 cells (CC50) on the basis of the MTT method. […]
as §1
Cytotoxicity against C8166 cells (CC50) was assessed using the MTT method, and anti-HIV-1 activity was evaluated by the inhibition assay for the cytopathic effects of HIV-1 (EC50). Briefly, cells were seeded on a microtiter plate in the absence or presence of various concentrations of compounds in triplicate and incubated at 37 °C in a humid atmosphere of 5% CO2 for three days.
20.0 μL MTT reagent (5.0 mg/mL in PBS) was added to each well, then incubated at 37 °C for 4 h, 50% DMF-20% SDS (100.0 μL) was added. After the formazan was dissolved completely, the plates were read on a Bio-Tek ELx 800 ELISA reader at 595 nm/630 nm (A595/630). The cytotoxic concentration that caused the reduction of viable cells by 50% (CC50) was calculated from dose–response curve. In 100.0 μL various concentrations of compounds, C8166 cells (4×10^5/mL) were infected with virus (HIV-1IIIB) at a multiplicity of infection (M. O. I) of 0.06. The final volume per well was 200.0 μL. Control assays were performed without the testing compounds in HIV-1IIIB infected and uninfected cultures. AZT (3′-azido-3′-deoxythymidine) was used as a positive control. After three days of culture, the cytopathic effect (CPE) was measured by counting the number of syncytia (multinucleated giant cell). Percentage inhibition of syncytia formation was calculated and 50% effective concentration (EC50) was calculated. The therapeutic index (TI) was calculated from the ratio of CC50/EC50.

[2] = test system: NO production induced by lipopolysaccharide in mouse macrophage RAW 264.7 cells; test: Inhibition of NO production induced by lipopolysaccharide in RAW 264.7 cells (Griess reaction); format: cell-based; conditions: RAW264.7, LPS-induced RAW 264.7 cells, 24 h, mean ± SD of triplicate determinations, read-out: IC50 (50% inhibitory concentration on NO production)
[3] = C8166 cells, C8166 cell line, MTT, three days, read-out: CC50 (50% cytotoxic concentration)

With `Cc1cn([C@H]2C[C@H](N=[N+]=[N-])[C@@H](CO)O2)c(=O)[nH]c1=O` [AZT, 3′-azido-3′-deoxythymidine, reference compound] the CC50 at 3 days [1] was 4020 µM, the “TI (therapeutic index) = CC50/EC50” value (HIV-1IIIB) was 193,371.51 and the EC50 (HIV-1IIIB) was 0.0208 µM.
For `C=C(C)C(O)CCC(C)=CCc1c(O)c(CC=C(C)C)c(O)c2c(=O)c3cc(O)ccc3oc12` (stereo not shown) [Compound 1, Cratocochinone A], the CC50 at 3 days [1, 3] was > 200 µM, the IC50 [2] was 1.29 ± 0.06 µM and the “TI (therapeutic index) = CC50/EC50” value (HIV-1IIIB) was >909.09. For the same molecule, the EC50 (HIV-1IIIB) was 0.22 µM.
In the case of `COc1ccc2c(=O)c3c(O)cc4c(c3oc2c1O)C(C)(C)C(CO)O4` (stereo not shown) [Compound 2, Cratocochinone B], the CC50 at 3 days [1, 3] is reported as > 200 µM, the IC50 [2] is reported as 2.17 ± 0.09 µM and the “TI (therapeutic index) = CC50/EC50” value (HIV-1IIIB) is reported as >294.12. It also gave an EC50 (HIV-1IIIB) of 0.68 µM.
For `COc1ccc2c(=O)c3c(OC)c(OC)c(O)cc3oc2c1O` [Compound 3, Cratocochinone C], the CC50 at 3 days [1, 3] was > 200 µM, the IC50 [2] was 0.86 ± 0.05 µM and the “TI (therapeutic index) = CC50/EC50” value (HIV-1IIIB) was >105.82. It also gave an EC50 (HIV-1IIIB) of 1.89 µM.
For `COc1ccc2c(=O)c3cc(O)c(OC)c(O)c3oc2c1OC` [Compound 4, Cratocochinone D], the CC50 at 3 days [1, 3] was > 200 µM, the IC50 [2] was 9.42 ± 0.13 µM and the “TI (therapeutic index) = CC50/EC50” value (HIV-1IIIB) was >49.14. For the same molecule, the EC50 (HIV-1IIIB) was 4.07 µM.
With `CC(C)=CCC/C(C)=C/Cc1c(O)c(CC=C(C)C)c(O)c2c(=O)c3c(O)ccc(O)c3oc12` [Compound 5, 1,3,5,8-tetrahydroxy-2-(3-methybut-2-enyl)-4-(3,7-dimethylocta-2,6-dienyl) xanthone] the CC50 at 3 days [1, 3] was > 200 µM, the IC50 [2] was 6.47 ± 0.1 µM and the “TI (therapeutic index) = CC50/EC50” value (HIV-1IIIB) was >79.05. For the same molecule, the EC50 (HIV-1IIIB) was 2.53 µM.
For `CC1(C)c2c(cc(O)c3c(=O)c4ccc(O)c(O)c4oc23)O[C@H]1CO` [Compound 6, cochinchinone P], the CC50 at 3 days [1, 3] was > 200 µM, the IC50 [2] was 8.35 ± 0.15 µM and the “TI (therapeutic index) = CC50/EC50” value (HIV-1IIIB) was >64.94. The EC50 (HIV-1IIIB) was 3.08 µM.
With `C[C@@H]1Oc2cc(O)c3c(=O)c4cc(O)c(O)c(O)c4oc3c2C1(C)C` [Compound 7, 2-deprenyl-7-hydroxy-rheediaxanthone] the CC50 at 3 days [1, 3] was > 200 µM, the IC50 [2] was 12.58 ± 0.12 µM and the “TI (therapeutic index) = CC50/EC50” value (HIV-1IIIB) was >48.08. It also gave an EC50 (HIV-1IIIB) of 4.16 µM.
In the case of `COc1cc2c(c3oc4c5c(ccc4c(=O)c13)OCO5)C=CC(C)(C)O2` [Compound 8, musaxanthone], the CC50 at 3 days [1, 3] is reported as > 200 µM, the IC50 [2] is reported as 4.16 ± 0.08 µM and the “TI (therapeutic index) = CC50/EC50” value (HIV-1IIIB) is reported as >22.45. For the same molecule, the EC50 (HIV-1IIIB) was 8.91 µM.
For `COc1c(O)cc2oc3ccc(O)c(OC)c3c(=O)c2c1OC` [Compound 9, 3,7-dihydroxy-1,2,8-trimethoxy-9H-xanthen-9-one], the CC50 at 3 days [1, 3] was > 200 µM, the IC50 [2] was 18.4 ± 0.21 µM and the “TI (therapeutic index) = CC50/EC50” value (HIV-1IIIB) was >37.59. The EC50 (HIV-1IIIB) was 5.32 µM.
With `COc1cc(O)c2c(=O)c3c(OC)c(OC)c(O)cc3oc2c1` [Compound 10, 3,8-dihydroxy-1,2,6-trimethoxy-9H-xanthen-9-one] the CC50 at 3 days [1, 3] was > 200 µM, the IC50 [2] was 7.47 ± 0.11 µM and the “TI (therapeutic index) = CC50/EC50” value (HIV-1IIIB) was >74.91. It also gave an EC50 (HIV-1IIIB) of 2.67 µM.
With `COc1cc2oc3c(O)ccc(OC)c3c(=O)c2c(O)c1OC` [Compound 11, 1,5-dihydroxy-2,3,8-trimethoxy-9H-xanthen-9-one] the CC50 at 3 days [1, 3] was > 200 µM, the IC50 [2] was 3.16 ± 0.09 µM and the “TI (therapeutic index) = CC50/EC50” value (HIV-1IIIB) was >17.81. For the same molecule, the EC50 (HIV-1IIIB) was 11.2 µM.
For `COc1c(O)cc2oc3cc(O)c(OC)c(OC)c3c(=O)c2c1O` [Compound 12, 1,3,6-trihydroxy-2,7,8-trimethoxy-9H-xanthen-9-one], the CC50 at 3 days [1, 3] was > 200 µM, the IC50 [2] was 6.21 ± 0.08 µM and the “TI (therapeutic index) = CC50/EC50” value (HIV-1IIIB) was >31.50. The EC50 (HIV-1IIIB) was 6.35 µM.
`C[C@]12CCC(=O)C=C1CC[C@@H]1[C@@H]2[C@@H](O)C[C@@]2(C)[C@H]1CC[C@]2(O)C(=O)CO` [Hydrocortisone, reference compound] gave an IC50 [2] of 4.08 ± 0.08 µM.
